Columns and labels:
[1] = test system: PanIN and PDA tumor growth in KIC mice; assay: Two week in vivo assay in Rgs16::GFP;KIC mice, Rgs16::GFP intensity at P29; design: species or system mouse
Description: Fluorescent microscopy and GFP quantification. Pancreatic expression of Rgs16::GFP in GFP-PDA mice was quantified using a Zeiss Lumar microscope. Images were captured using a single-channel camera (Hamamatsu) in 1344×1024 resolution with 1 sec exposure under 48× magnification with 1×1 binning, analog gain=10, and analog offset=2 settings. Pancreatic fields representing the tumor burden (3-4 fields for P15 pups and 5 or more for pups from P23 onwards) of the pancreas were imaged covering up to 50% of the organ surface area. All images were saved in gray-scale 16-bit tiff format. Images were quantified using NIH ImageJ software with background subtraction with a radius of 50 pixels. A variable and tight threshold was set to eliminate residual background. Intensities of all particles with size ≥5 pixels were summed to obtain the total light intensity per image.
Drug dosages. GFP-PDA mice were injected intraperitoneally with gemcitabine (Eli Lilly; Indianapolis, Ind., USA) (12.5 mg/kg/day given 3 days/week, dissolved in PBS), Abraxane (Cellgene; Summit, N.J., USA) (5 mg/kg/day given 2 days/week, diluted in 2% saline solution), BGB324 (BerGenBio, Bergen, Norway) (5 mg/kg/day given 5 days/week, dissolved in a mix of DMSO:ethanol:Kolliphor EL:water with 4:4:8:84 v/v ratio), and warfarin (0.2 mg/kg/day given 5 days/week, dissolved in PBS) according to injection schedules specified below. These doses were validated in prior mouse studies (Dineen et al., 2010; Kutluk Cenik et al., 2013; Ostapoff et al., 2013; Aguilera et al., 2014; Ostapoff et al., 2014). […] To verify tumor progression remains constant over the duration of these experiments, assays of untreated mice were interspersed with drug-treated cohorts, and warfarin-treated pups were the final cohort the inventors tested. Gemcitabine, Abraxane and warfarin were purchased from the UT Southwestern clinical pharmacy; BGB324 was a gift from BerGenBio.
Statistical analysis of GFP expression. GFP values were converted to log10 scale prior to statistical analysis. Graphs and their statistical comparisons were done using Graphpad Prism software with unpaired and two-tailed Student's t test. Significance between groups was indicated as ns (not significant); *p<0.05; **p<0.01; ***p<0.001; ****p<0.0001. Error bars in all the graphs are standard error mean (SEM). See FIGS. 7-8 for additional statistical analysis.
The therapeutic screening strategy was to treat KIC pups between P15-P28 (when PanIN and PDA are in rapid expansion) with anticancer drugs, sacrifice mice at P29, and capture Rgs16::GFP intensity with a dissection fluorescence microscope. Images of the five brightest non-overlapping fields of Rgs16::GFP expression were then collected, representing the regions of greatest tumor burden (FIGS. 17A-C).

[2] = test system: AsPC1 tumors; assay: Low dose warfarin in drinking water, orthotopic human tumor xenograft; type: in vivo, mouse; conditions: warfarin 1 mg/L drinking water
Experimental: (§1) (FIG. 23A) Primary tumor burden after therapy with warfarin. Therapy was initiated when implanted tumors were visible by ultrasound (˜10 mm^3) and consisted of control (normal drinking water) or warfarin, administered in the drinking water at 0.5 mg/L (immunocompetent mice: Pan02 (n=4, control; 3, warfarin), KIC (n=10, control; 8, warfarin)) or 1 mg/L (Panc-1 (n=10, control; 8, warfarin), AsPC-1 (n=8, control; 6, warfarin), Capan-1 (n=10, control; 7, warfarin)) and continued for 2-4 weeks until control mice were moribund. Therapy in KIC mice was initiated at 3 weeks of age and continued for 4 weeks. (FIG. 23B) Metastases were determined grossly upon sacrifice and confirmed by histological evaluation of the liver. […] Incidence of metastasis is also indicated. […] Tumor volume determined by serial ultrasound. […] Therapy with mAb 10C9 (250 μg 2×/week) was initiated when tumors were established as above and persisted for 4 weeks. […] Error bars indicate s.e.m.
(§2) Animal studies. All animals were housed in a pathogen-free facility with 24-hour access to food and water. Experiments were approved by, and conducted in accordance with, an IACUC approved protocol at UT Southwestern. LSL-Kras^G12D; Cdkn2a^lox/lox; p48^Cre (KIC) mice were generated as previously described (Ostapoff et al., 2014). Four- to 6-week-old female NOD/SCID and C57/B16 mice were obtained from an on campus supplier. A total of 1×10^6 AsPc-1, Panc-1, Mia Paca2, Capan-1, C5LM2, Mia shLuc and Mia shAxl or 5×10^5 Pan02 cells, were injected orthotopically as described (Ostapoff et al., 2014). Mice with established tumors, as determined by sonography were randomized to receive normal drinking water or water containing 1 mg/L (˜3.0 μM) warfarin for experiments in immunocompromised mice and 0.5 mg/L (˜1.5 μM) in experiments in immunocompetent animals with or without gemcitabine 25 mg/kg twice weekly depending on experimental design.

[3] = test system: Capan-1 tumors; assay: as above; type: in vivo, mouse
Experimental: as §1, §2

[4] = test system: pancreatic ductal adenocarcinoma (PDA) metastases; assay: Metastatic burden in five murine models of PDA under low dose warfarin; type: in vivo, mouse; conditions: four of the five PDA models; warfarin 0.5-1 mg/L drinking water
Experimental: as §1
Animal studies. […] Mice with established tumors, as determined by sonography were randomized to receive normal drinking water or water containing 1 mg/L (˜3.0 μM) warfarin for experiments in immunocompromised mice and 0.5 mg/L (˜1.5 μM) in experiments in immunocompetent animals with or without gemcitabine 25 mg/kg twice weekly depending on experimental design.

[5] = test system: AKT; assay: Gas6-induced phosphorylated Akt in Panc1 cells; type: cell-based, human; conditions: warfarin 1 μM, Gas6 1.3 nM
Experimental: (§3) (FIG. 24A) HEK293 cells engineered to stably express recombinant Gas6 were grown in the presence of Vitamin K or Vitamin K+warfarin. Gas6 levels and γ-carboxylation were assayed by immunoblotting conditioned media. Conditioned media from untransfected HEK293 cells was used as a negative control. (FIG. 24B) Panc1 cells were grown overnight in media with 1% serum with no additions (NT), warfarin (2 μM) or BGB324 (2 μM). Lysates were probed for total Axl (tAxl) and phosphorylated Axl (pAxl). (FIG. 24C) Panc1 cells were grown in the presence of control media, Vitamin K, warfarin or warfarin+Vitamin K. The level of phosphorylated Axl (pAXL, red) was determined by immunofluorescence. (FIG. 24D) Panc1 cells were grown overnight in media with 1% serum with no additions (control), warfarin (1 μM), Gas6 (1.3 nM) or Gas6+warfarin. Lysates were probed for phosphorylated Akt (pAkt) and actin. (FIG. 24E) Lysates from Panc1 tumors harvested from mice treated with control or warfarin were probed for expression of tAxl, pAxl, actin, pAKT, tAKT, and cleaved Parp. (FIG. 24F) The effect of warfarin on cell migration was assessed by a ‘scratch’ assay. Monolayers of the indicted cells were wounded with a pipet tip. The cells were incubated in media containing 2% serum+/−warfarin (2 μM) or media containing 2% serum+Gas6 (1.3 nM)+/−warfarin.

[6] = test system: cell migration; assay: Scratch migration assay; type: cell-based; conditions: warfarin 2 μM, 16 hrs
Experimental: as §3

In the case of CC(=O)CC(c1ccccc1)c1c(O)c2ccccc2oc1=O (racemic) [Warfarin], the “effect on PanIN lesions and PDA tumor growth (Rgs16::GFP expression)” value ([1]; KIC mice treated P15-P28, i.p., sacrificed P29) is reported as “no effect”, the “mice with at least one field in the lower 1% ile of all untreated fields” value ([1]; P29, untreated 7%) is reported as 19% and the “mice with at least one field of Rgs16::GFP expression in pancreas greater than the upper 95% ile of all untreated fields” value ([1]; P29, untreated 14%) is reported as 13%. For the same compound, the primary tumor growth [2] was “little effect”, the “response of tumors to warfarin” value ([3]; no detectable Axl expression) was “nonresponsive” and the primary tumor growth ([3]; warfarin 1 mg/L drinking water) was “little effect”. The metastatic burden [4] was “consistently and potently inhibited metastatic burden”, the “Gas6-induced activation of AKT” value [5] was “inhibited” and the “basal and Gas6-induced cell migration (% wound closure)” value [6] was “reduced”.

— US9986723B2, “Screen and use of therapeutics for pancreatic ductal adenocarcinoma” (The Board of Regents of the University of Texas System, priority 2014, dated 2018)
